Source: PMC9334755 (Cancer Biology & Medicine, 2021)
Like-named read-outs stand apart in the source and are kept apart here.

How the values were obtained:
TXK = TXK (Homo sapiens, UniProt P42681); assay: Protein kinase panel at 1 µM, TXK; type: biochemical
BTK [1] = target: T1, BTK (Homo sapiens, UniProt Q06187); assay: LC-MS/MS of free inhibitor after incubation with BTK; type: binding
Description: In addition, after incubation of BTK with the inhibitors for 4 h, we performed liquid chromatography-tandem mass spectrometry (LC-MS/MS) to detect the abundance of the inhibitors.
(A) The compounds were incubated with BTK for 2 h, after which HTRF assays were performed with dilution of the mixture. The reactions were stopped at different time points. Data are shown as the mean ± SEM. (B) The content of the compounds was measured with LC-MS/MS after incubation with BTK for 4 h. Data are shown as the mean ± SEM (n = 3). Statistical analysis was performed with Student’s t-test (***P < 0.001). […] Cells were lysed and analyzed by Western blot and fluorescent gel scanning.
(§1) Data are shown as the mean ± SEM. […] Data are shown as the mean ± SEM of 3 independent experiments. Statistical analysis was performed with Student’s t-test (**P < 0.01, ***P < 0.001). […] Cells were lysed and then analyzed by Western blot and fluorescent gel scanning. […] Cells were lysed and analyzed by Western blot and fluorescent gel scanning.

FGR = FGR (Homo sapiens, UniProt P09769); assay: Protein kinase panel at 1 µM, FGR; type: biochemical
FGR, sequence (P09769 whole entry): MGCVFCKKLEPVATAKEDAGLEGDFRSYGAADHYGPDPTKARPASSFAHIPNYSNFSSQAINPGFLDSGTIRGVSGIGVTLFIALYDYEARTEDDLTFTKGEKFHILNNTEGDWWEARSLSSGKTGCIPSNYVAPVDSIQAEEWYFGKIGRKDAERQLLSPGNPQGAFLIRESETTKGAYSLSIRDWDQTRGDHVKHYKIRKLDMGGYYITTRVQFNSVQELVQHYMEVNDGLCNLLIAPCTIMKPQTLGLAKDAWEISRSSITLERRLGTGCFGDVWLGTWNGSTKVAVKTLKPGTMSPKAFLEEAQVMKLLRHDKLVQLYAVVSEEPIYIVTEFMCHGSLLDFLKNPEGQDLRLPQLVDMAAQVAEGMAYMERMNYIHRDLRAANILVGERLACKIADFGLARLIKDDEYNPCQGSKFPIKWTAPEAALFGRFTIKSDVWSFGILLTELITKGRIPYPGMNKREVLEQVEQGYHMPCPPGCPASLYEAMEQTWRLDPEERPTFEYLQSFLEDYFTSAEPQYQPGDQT

BLK = BLK (Homo sapiens, UniProt P51451); assay: Protein kinase panel at 1 µM, BLK; type: biochemical
BLK, sequence (P51451 whole entry): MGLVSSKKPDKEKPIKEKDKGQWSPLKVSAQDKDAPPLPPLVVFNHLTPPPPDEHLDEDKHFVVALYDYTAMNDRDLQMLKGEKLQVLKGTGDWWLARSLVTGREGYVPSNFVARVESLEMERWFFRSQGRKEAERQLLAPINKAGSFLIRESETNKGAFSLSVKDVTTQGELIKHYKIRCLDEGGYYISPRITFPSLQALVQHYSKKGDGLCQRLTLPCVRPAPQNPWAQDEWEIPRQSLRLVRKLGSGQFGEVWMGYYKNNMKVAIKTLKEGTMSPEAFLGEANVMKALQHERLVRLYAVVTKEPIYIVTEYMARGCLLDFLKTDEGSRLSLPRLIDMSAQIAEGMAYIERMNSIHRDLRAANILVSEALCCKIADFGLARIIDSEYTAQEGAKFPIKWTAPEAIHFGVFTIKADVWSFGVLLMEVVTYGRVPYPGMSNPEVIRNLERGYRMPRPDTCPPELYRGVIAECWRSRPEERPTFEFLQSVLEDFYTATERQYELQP

BTK [2] = target: T1, BTK; assay: Competition with fluorescent probe FL-SY-1530 in DOHH2 cells (Typhoon imaging); type: cell-based; conditions: 10 nM inhibitor 1 h, then 2.5 µM FL-SY-1530 1 h
Description: as §1

FLT3 = FLT3 (Homo sapiens, UniProt P36888); assay: Protein kinase panel at 1 µM, FLT3; type: biochemical
FLT3, sequence (P36888 27-993): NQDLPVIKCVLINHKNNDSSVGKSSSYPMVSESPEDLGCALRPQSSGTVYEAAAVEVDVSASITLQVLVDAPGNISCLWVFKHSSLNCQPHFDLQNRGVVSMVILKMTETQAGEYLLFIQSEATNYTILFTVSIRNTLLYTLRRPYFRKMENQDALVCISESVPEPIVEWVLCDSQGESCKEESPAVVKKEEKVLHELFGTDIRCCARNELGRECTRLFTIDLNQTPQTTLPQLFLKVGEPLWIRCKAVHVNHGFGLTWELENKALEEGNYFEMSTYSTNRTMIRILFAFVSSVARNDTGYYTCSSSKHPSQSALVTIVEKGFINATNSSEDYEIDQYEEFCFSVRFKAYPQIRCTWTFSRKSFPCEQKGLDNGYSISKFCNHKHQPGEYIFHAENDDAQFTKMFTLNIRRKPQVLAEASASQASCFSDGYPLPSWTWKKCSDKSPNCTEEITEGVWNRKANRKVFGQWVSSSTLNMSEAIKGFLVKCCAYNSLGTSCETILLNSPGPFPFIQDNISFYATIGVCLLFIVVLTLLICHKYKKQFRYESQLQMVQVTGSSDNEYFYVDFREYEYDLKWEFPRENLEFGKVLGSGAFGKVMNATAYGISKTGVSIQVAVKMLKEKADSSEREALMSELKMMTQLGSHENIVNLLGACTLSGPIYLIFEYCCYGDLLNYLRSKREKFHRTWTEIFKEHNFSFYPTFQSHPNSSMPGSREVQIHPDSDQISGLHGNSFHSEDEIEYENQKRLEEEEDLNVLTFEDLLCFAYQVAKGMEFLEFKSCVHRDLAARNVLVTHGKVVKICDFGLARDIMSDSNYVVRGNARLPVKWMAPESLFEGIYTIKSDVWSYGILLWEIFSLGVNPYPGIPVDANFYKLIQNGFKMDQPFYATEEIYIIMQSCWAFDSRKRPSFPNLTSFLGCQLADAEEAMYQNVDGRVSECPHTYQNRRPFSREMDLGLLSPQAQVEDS

[3] = monkey
Pfeiffer = assay: Cell viability assay (CellTiter-Blue), Pfeiffer; type: cell-based, human; conditions: Pfeiffer cells; read-out: IC50 (nM), growth of Pfeiffer
Description: Cells were seeded on 96-well plates (9,000 cells/well), cultured at 37 °C in 5% CO2 overnight, and incubated with different concentrations of compounds for 3 or 7 days. Then the cells were stained with CellTiter-Blue® reagent (Promega) for 4 h at 37 °C. The fluorescence signals were detected with a FlexStation 3, and the IC50 values of each compound were determined with GraFit software (Version 6.0).

RET = RET (Homo sapiens, UniProt P07949); assay: Protein kinase panel at 1 µM, RET; type: biochemical
RET, sequence (P07949 29-1114): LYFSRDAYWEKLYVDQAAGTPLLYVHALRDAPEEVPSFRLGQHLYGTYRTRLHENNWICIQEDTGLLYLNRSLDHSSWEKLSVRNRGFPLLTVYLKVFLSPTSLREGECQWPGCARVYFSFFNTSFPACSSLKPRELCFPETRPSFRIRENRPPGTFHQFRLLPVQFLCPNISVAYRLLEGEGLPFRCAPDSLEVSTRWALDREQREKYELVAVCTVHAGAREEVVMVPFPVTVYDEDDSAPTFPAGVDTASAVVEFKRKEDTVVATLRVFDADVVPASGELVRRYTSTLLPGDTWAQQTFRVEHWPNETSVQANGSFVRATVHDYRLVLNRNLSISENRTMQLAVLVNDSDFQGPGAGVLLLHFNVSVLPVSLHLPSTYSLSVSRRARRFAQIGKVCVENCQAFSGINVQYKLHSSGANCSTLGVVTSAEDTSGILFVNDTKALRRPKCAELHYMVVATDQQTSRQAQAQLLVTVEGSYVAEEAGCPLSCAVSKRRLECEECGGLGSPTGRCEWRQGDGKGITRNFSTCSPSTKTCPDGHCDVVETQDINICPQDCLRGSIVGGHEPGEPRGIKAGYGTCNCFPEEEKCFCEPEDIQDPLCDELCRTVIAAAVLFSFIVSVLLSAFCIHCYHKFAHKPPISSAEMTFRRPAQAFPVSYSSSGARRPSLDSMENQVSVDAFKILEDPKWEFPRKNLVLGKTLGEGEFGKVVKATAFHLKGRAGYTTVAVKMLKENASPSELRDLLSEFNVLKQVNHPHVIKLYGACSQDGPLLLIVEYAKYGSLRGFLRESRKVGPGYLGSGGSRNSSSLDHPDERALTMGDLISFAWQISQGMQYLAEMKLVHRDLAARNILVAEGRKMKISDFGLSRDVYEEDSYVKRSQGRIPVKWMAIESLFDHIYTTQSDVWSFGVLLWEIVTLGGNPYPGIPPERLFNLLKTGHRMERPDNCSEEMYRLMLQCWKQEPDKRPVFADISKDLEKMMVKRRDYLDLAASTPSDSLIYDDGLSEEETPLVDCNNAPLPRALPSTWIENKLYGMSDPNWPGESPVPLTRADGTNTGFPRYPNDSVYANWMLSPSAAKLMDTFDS

ABL1 = ABL1 (Homo sapiens, UniProt P00519); assay: Protein kinase panel at 1 µM, ABL1; type: biochemical
FLT1 = FLT1 (Homo sapiens, UniProt P17948); assay: Protein kinase panel at 1 µM, FLT1; type: biochemical
FLT1, sequence (P17948 27-1338): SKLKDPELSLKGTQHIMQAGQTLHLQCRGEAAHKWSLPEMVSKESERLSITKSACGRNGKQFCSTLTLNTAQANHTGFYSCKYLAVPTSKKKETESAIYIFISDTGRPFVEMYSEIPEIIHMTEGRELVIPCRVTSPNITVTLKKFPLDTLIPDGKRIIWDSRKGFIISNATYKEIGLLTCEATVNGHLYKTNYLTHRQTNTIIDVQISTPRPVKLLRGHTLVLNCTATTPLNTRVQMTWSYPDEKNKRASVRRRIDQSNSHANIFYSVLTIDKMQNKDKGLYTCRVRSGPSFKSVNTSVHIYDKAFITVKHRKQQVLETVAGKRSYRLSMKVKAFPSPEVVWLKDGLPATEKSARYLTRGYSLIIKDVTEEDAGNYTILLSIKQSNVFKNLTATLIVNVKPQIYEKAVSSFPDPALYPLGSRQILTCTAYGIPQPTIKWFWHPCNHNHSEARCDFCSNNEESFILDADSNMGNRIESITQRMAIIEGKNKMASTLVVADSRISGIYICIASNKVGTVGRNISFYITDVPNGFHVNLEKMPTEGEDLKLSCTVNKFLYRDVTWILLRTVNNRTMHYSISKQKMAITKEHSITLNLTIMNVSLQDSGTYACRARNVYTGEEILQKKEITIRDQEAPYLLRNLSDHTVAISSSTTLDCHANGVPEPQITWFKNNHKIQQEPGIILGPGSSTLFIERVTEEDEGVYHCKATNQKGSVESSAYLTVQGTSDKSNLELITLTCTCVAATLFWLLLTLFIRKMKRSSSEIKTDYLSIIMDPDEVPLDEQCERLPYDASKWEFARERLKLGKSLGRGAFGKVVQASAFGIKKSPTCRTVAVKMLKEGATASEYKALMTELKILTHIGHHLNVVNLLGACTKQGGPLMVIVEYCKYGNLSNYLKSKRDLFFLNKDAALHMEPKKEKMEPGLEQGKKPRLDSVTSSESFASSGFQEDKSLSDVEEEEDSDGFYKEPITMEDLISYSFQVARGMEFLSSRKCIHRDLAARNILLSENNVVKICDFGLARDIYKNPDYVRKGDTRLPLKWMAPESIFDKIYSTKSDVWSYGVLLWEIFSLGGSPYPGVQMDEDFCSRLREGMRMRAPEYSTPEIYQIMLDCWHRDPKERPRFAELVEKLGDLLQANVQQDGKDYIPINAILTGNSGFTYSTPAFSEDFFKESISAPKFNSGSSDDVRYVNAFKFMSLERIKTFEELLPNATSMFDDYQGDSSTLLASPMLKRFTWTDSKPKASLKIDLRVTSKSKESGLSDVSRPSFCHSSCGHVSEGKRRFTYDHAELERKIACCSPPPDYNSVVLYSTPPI

human peripheral T cells = assay: CD69 up-regulation in T cells after anti-CD3/CD28 stimulation; type: cell-based
Description: CD19^+ B (>80% purity) and CD3^+ T (>90% purity) cells were purified with human B cell enrichment cocktail and human T cell enrichment cocktail (Stem Cell Technology), respectively. Cells were seeded on 12-well plates and incubated with different concentrations of BTK inhibitors for 1 h. B cells were stimulated with 50 µg/mL anti-human IgM F(ab′)2, and T cells were stimulated with 50 µg/mL anti-CD3/CD28 beads overnight. In the washout groups, the cell medium containing the indicated inhibitors was replaced with fresh medium before stimulation. Then cells were then incubated with anti-human CD69 for 1 h and analyzed with a Guava flow cytometer.
(§2) Figure 4 SY-1530 blocks B-cell receptor signaling and induces apoptosis. (A–D) Human B and T cells were purified and incubated with different concentrations of BTK inhibitors for 1 h. B cells were stimulated with 50 μg/mL anti-human IgM F(ab′)2, and T cells were stimulated with 50 μg/mL anti-CD3/CD28 beads overnight directly or after washout of BTK inhibitors before stimulation. The percentage of CD69 positive cells was analyzed by flow cytometry. Data are shown as the mean ± SEM (n = 3). Statistical analysis was performed with Student’s t-test (*P < 0.05, **P < 0.01, ***P < 0.001). (E) Pfeiffer cells and Romas cells were preincubated with different concentrations of compounds for 1 h, washed with PBS, and then stimulated with anti-IgM/anti-IgG (10 μg/mL) for 10 min. Cells were lysed and analyzed by Western blot with the indicated antibodies. (F) Pfeiffer cells were treated with various concentrations of SY-1530 for 24 h. The cells were stained with both PE-Annexin and 7-AAD and analyzed by flow cytometry. Data are shown as the mean ± SEM (n = 3). Statistical analysis was performed with Student’s t-test (*P < 0.05, **P < 0.01). (G) Pfeiffer cells were incubated with BTK inhibitors in the presence of z-VAD-fmk (caspase inhibitor) or DMSO for 24 h. Cells were lysed and analyzed with specific antibodies.

LYN A = LYN A (Homo sapiens, UniProt P07948); assay: Protein kinase panel at 1 µM, LYN A; type: biochemical
Pfeiffer cells = assay: Apoptosis detection (Annexin V / 7-AAD) in Pfeiffer cells; type: cell-based; conditions: 24 h, Annexin V and 7-AAD
Description: Apoptosis assays were performed with an Annexin V-PE Apoptosis Detection Kit I (BD Biosciences). Briefly, 5 × 10^5 Pfeiffer cells were seeded on 6-well plates and treated with BTK inhibitors at the indicated concentrations. After 24 h or 48 h, cells were collected and stained with PE Annexin V and 7-AAD according to the manufacturer’s instructions. FACS analysis was performed with a Guava flow cytometer.
as §2, with “(F) Pfeiffer cells were treated with various concentrations of SY-1530 for 24 h.” left out, “Data are shown as the mean ± SEM (n = 3). Statistical analysis was performed with Student’s t-test (*P < 0.05, **P < 0.01). (G) Pfeiffer cells were incubated with BTK inhibitors in the presence of z-VAD-fmk (caspase inhibitor) or DMSO for 24 h.” left out

[4] = dog

T1 sequence (Q06187 whole entry): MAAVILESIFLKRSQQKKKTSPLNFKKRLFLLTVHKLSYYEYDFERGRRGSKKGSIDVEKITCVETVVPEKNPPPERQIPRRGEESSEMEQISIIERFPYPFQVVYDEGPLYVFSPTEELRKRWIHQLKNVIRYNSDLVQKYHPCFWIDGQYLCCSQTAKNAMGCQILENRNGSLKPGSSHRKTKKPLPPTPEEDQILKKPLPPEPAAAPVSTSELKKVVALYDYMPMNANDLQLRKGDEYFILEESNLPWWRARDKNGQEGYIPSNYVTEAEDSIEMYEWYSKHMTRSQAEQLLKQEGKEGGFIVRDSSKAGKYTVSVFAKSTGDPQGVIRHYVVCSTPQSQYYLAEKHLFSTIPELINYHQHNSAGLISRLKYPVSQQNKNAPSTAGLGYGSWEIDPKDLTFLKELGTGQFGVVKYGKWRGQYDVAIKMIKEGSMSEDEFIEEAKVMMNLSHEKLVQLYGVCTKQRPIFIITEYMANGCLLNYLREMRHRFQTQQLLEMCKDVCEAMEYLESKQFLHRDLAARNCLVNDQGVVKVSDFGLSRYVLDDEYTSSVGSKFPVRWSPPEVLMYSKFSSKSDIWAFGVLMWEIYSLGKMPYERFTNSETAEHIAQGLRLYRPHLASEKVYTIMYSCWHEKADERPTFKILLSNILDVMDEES

COC/C=C/C(=O)N1CC[C@@H](n2nc(-c3ccc(Oc4ccccc4)cc3)c(C(N)=O)c2N)C1 [SY-1530]
Inhibition (%), TXK (TXK): 73% | Incubation time to saturation of covalent binding to BTK kinase (BTK [1]): 30 min | Decrease of free inhibitor after incubation with BTK (BTK [1]; 4 h incubation): more than 80% | Inhibition (%), FGR (FGR): 96% | Inhibition (%), BLK (BLK): 53% | Binding of FL-SY-1530 to BTK after pretreatment with inhibitor (BTK [2]): scarcely bound | Inhibition (%), FLT3 (FLT3): 68% | Plasma protein binding (%) [3]: 95.3% | IC50 (Pfeiffer): 71.4 nM | Inhibition (%), RET (RET): 57% | Inhibition (%), ABL1 (ABL1): 8% | Inhibition (%), FLT1 (FLT1): 33% | Up-regulation of CD69 in T cells (human peripheral T cells; after washout of BTK inhibitors): not affected | CD69 up-regulation after T cell receptor stimulation (human peripheral T cells; continuous exposure, 10 µM): slightly inhibited | Inhibition (%), LYN A (LYN A): 87% | Apoptosis in Pfeiffer cells (Pfeiffer cells): induced early and late apoptosis | Plasma protein binding (%) [4]: 95.5%
